Each compound was assayed against GST-Bc1-2 (Homo sapiens, UniProt P10415) (assay: Time Resolved-Fluorescence Resonance Energy Transfer (TR-FRET) Bcl-2 binding assay with F-Bak peptide probe). Settings: GST-Bcl-2 1 nM, F-Bak probe 100 nM, Tb-anti-GST 1 nM; '<' = below limit of detection; read-out: TR-FRET Bcl-2 Binding Ki.
GST-Bc1-2, sequence (P10415 whole entry): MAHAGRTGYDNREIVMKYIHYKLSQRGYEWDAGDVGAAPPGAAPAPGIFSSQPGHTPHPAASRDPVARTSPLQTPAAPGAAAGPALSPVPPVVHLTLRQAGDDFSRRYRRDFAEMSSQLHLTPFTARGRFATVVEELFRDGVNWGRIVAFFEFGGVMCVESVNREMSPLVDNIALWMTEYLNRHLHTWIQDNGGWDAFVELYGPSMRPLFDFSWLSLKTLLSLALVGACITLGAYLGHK

Row | Compound | Ki [nM]
1 | CC1(C)CCC(CN2CCN(c3ccc(C(=O)NS(=O)(=O)c4cnc(OC[C@H]5CN(CC#N)CCO5)c(Cl)c4)c(Oc4cnc5[nH]ccc5c4)c3)CC2)=C(c2ccc(Cl)cc2)C1 [Example 246, N-[(5-chloro-6-{[(2R)-4-(cyanomethyl)morpholin-2-yl]methoxy}pyridin-3-yl)sulfonyl]-4-(4-{[2-(4-chlorophenyl)-4,4-dimethylcyclohex-1-en-1-yl]methyl}piperazin-1-yl)-2-(1H-pyrrolo[2,3-b]pyridin-5-yloxy)benzamide] | 0.144
2 | COC1(Cc2ccccc2-c2ccc(Cl)cc2)CCN(c2ccc(C(=O)NS(=O)(=O)c3ccc(NCC4CCOCC4)c([N+](=O)[O-])c3)c(Oc3cnc4[nH]ccc4c3)c2)CC1 [Example 264, 4-{4-[(4′-chlorobiphenyl-2-yl)methyl]-4-methoxypiperidin-1-yl}-N-({3-nitro-4-[(tetrahydro-2H-pyran-4-ylmethyl)amino]phenyl}sulfonyl)-2-(1H-pyrrolo[2,3-b]pyridin-5-yloxy)benzamide] | 0.036
3 | CC1(C)CCC(CN2CCN(c3ccc(C(=O)NS(=O)(=O)c4ccc(NCC5CCC(C)(C#N)CC5)c([N+](=O)[O-])c4)c(Oc4cnc5[nH]ccc5c4)c3)CC2)=C(c2ccc(Cl)cc2)C1 (stereo not drawn) [Example 366, 4-(4-{[2-(4-chlorophenyl)-4,4-dimethylcyclohex-1-en-1-yl]methyl}piperazin-1-yl)-N-[(4-{[(4-cyano-4-methylcyclohexyl)methyl]amino}-3-nitrophenyl)sulfonyl]-2-(1H-pyrrolo[2,3-b]pyridin-5-yloxy)benzamide] | 0.024
4 | CC1(C)CCC(CN2CCN(c3ccc(C(=O)NS(=O)(=O)c4ccc(NC5CCN(C6CC6)CC5)c(S(=O)(=O)C(F)(F)F)c4)c(Oc4cnc5[nH]ccc5c4)c3)CC2)=C(c2ccc(Cl)cc2)C1 [Example 190, 4-(4-{[2-(4-chlorophenyl)-4,4-dimethylcyclohex-1-en-1-yl]methyl}piperazin-1-yl)-N-({4-[(1-cyclopropylpiperidin-4-yl)amino]-3-[(trifluoromethyl)sulfonyl]phenyl}sulfonyl)-2-(1H-pyrrolo[2,3-b]pyridin-5-yloxy)benzamide] | 0.026
5 | CCN(C)C(=O)N1CCOC(CNc2ncc(S(=O)(=O)NC(=O)c3ccc(N4CCN(CC5=C(c6ccc(Cl)cc6)CC(C)(C)CC5)CC4)cc3Oc3cnc4[nH]ccc4c3)cc2Cl)C1 (stereo not drawn) [Example 336, 2-{[(3-chloro-5-{[4-(4-{[2-(4-chlorophenyl)-4,4-dimethylcyclohex-1-en-1-yl]methyl}piperazin-1-yl)-2-(1H-pyrrolo[2,3-b]pyridin-5-yloxy)benzoyl]sulfamoyl}pyridin-2-yl)amino]methyl}-N-ethyl-N-methylmorpholine-4-carboxamide] | 0.198
6 | CC1(C)CCC(c2ccc(Cl)cc2)=C(CN2CCN(c3ccc(C(=O)NS(=O)(=O)c4ccc(OCC5(F)CCOCC5)c([N+](=O)[O-])c4)c(Oc4cnc5[nH]ccc5c4)c3)CC2)C1 [Example 119, 4-(4-{[2-(4-chlorophenyl)-5,5-dimethylcyclohex-1-en-1-yl]methyl}piperazin-1-yl)-N-({4-[(4-fluorotetrahydro-2H-pyran-4-yl)methoxy]-3-nitrophenyl}sulfonyl)-2-(1H-pyrrolo[2,3-b]pyridin-5-yloxy)benzamide] | < 0.01
7 | COCCN1CCOC(CNc2ccc(S(=O)(=O)NC(=O)c3ccc(N4CCN(CC5=C(c6ccc(Cl)cc6)CC(C)(C)CC5)CC4)cc3Oc3cnc4[nH]ccc4c3)cc2[N+](=O)[O-])C1 (stereo not drawn) [Example 135, 4-(4-{[2-(4-chlorophenyl)-4,4-dimethylcyclohex-1-en-1-yl]methyl}piperazin-1-yl)-N-{[4-({[4-(2-methoxyethyl)morpholin-2-yl]methyl}amino)-3-nitrophenyl]sulfonyl}-2-(1H-pyrrolo[2,3-b]pyridin-5-yloxy)benzamide] | < 0.01
8 | CC1(C)CCC(CN2CCN(c3ccc(C(=O)NS(=O)(=O)c4ccc(NC5CCN([C@H]6CCOC[C@H]6F)CC5)c([N+](=O)[O-])c4)c(Oc4cnc5[nH]ccc5c4)c3)CC2)=C(c2ccc(Cl)cc2)C1 (relative stereo) [Example 115, 4-(4-{[2-(4-chlorophenyl)-4,4-dimethylcyclohex-1-en-1-yl]methyl}piperazin-1-yl)-N-{[4-({1-[cis-3-fluorotetrahydro-2H-pyran-4-yl]piperidin-4-yl}amino)-3-nitrophenyl]sulfonyl}-2-(1H-pyrrolo[2,3-b]pyridin-5-yloxy)benzamide] | < 0.01
9 | CC1(C)CCC(CN2CCN(c3ccc(C(=O)NS(=O)(=O)c4ccc(N[C@H]5CC[C@@H](N6CCOCC6)CC5)c([N+](=O)[O-])c4)c(Oc4cnc5[nH]ccc5c4)c3)CC2)=C(c2ccc(Cl)cc2)C1 [Example 39, Cis-4-(4-{[2-(4-chlorophenyl)-4,4-dimethylcyclohex-1-en-1-yl]methyl}piperazin-1-yl)-N-({4-[(4-morpholin-4-ylcyclohexyl)amino]-3-nitrophenyl}sulfonyl)-2-(1H-pyrrolo[2,3-b]pyridin-5-yloxy)benzamide] | 0.012
10 | CC1(C)CCC(CN2CCN(c3ccc(C(=O)NS(=O)(=O)c4cnc(OCC5(F)CCN(C6COC6)CC5)c(Cl)c4)c(Oc4cnc5[nH]ccc5c4)c3)CC2)=C(c2ccc(Cl)cc2)C1 [Example 277, N-[(5-chloro-6-{[4-fluoro-1-(oxetan-3-yl)piperidin-4-yl]methoxy}pyridin-3-yl)sulfonyl]-4-(4-{[2-(4-chlorophenyl)-4,4-dimethylcyclohex-1-en-1-yl]methyl}piperazin-1-yl)-2-(1H-pyrrolo[2,3-b]pyridin-5-yloxy)benzamide] | < 0.01
11 | CC1(C)CCC(CN2CCN(c3ccc(C(=O)NS(=O)(=O)c4ccc(N[C@H]5CCCNC5=O)c([N+](=O)[O-])c4)c(Oc4cnc5[nH]ccc5c4)c3)CC2)=C(c2ccc(Cl)cc2)C1 [Example 160, 4-(4-{[2-(4-chlorophenyl)-4,4-dimethylcyclohex-1-en-1-yl]methyl}piperazin-1-yl)-N-[(3-nitro-4-{[(3S)-2-oxopiperidin-3-yl]amino}phenyl)sulfonyl]-2-(1H-pyrrolo[2,3-b]pyridin-5-yloxy)benzamide] | < 0.01
12 | CC1(C)CCC(CN2CCN(c3ccc(C(=O)NS(=O)(=O)c4cnc(OCC5CCOCC5)c(C(F)(F)F)c4)c(Oc4cnc5[nH]ccc5c4)c3)CC2)=C(c2ccc(Cl)cc2)C1 [Example 297, 4-(4-{[2-(4-chlorophenyl)-4,4-dimethylcyclohex-1-en-1-yl]methyl}piperazin-1-yl)-2-(1H-pyrrolo[2,3-b]pyridin-5-yloxy)-N-{[6-(tetrahydro-2H-pyran-4-ylmethoxy)-5-(trifluoromethyl)pyridin-3-yl]sulfonyl}benzamide] | 0.174
13 | CCN(C)C(=O)N1CCOC(CNc2ccc(S(=O)(=O)NC(=O)c3ccc(N4CCN(CC5=C(c6ccc(Cl)cc6)CC(C)(C)CC5)CC4)cc3Oc3cnc4[nH]ccc4c3)cc2[N+](=O)[O-])C1 (stereo not drawn) [Example 318, 2-{[(4-{[4-(4-{[2-(4-chlorophenyl)-4,4-dimethylcyclohex-1-en-1-yl]methyl}piperazin-1-yl)-2-(1H-pyrrolo[2,3-b]pyridin-5-yloxy)benzoyl]sulfamoyl}-2-nitrophenyl)amino]methyl}-N-ethyl-N-methylmorpholine-4-carboxamide] | < 0.01
14 | CC1(C)CCC(CN2CCN(c3ccc(C(=O)NS(=O)(=O)c4ccc(NC[C@H]5CCN(C6CCOCC6)C5)c([N+](=O)[O-])c4)c(Oc4cnc5[nH]ccc5c4)c3)CC2)=C(c2ccc(Cl)cc2)C1 [Example 118, 4-(4-{[2-(4-chlorophenyl)-4,4-dimethylcyclohex-1-en-1-yl]methyl}piperazin-1-yl)-N-{[3-nitro-4-({[(3R)-1-tetrahydro-2H-pyran-4-ylpyrrolidin-3-yl]methyl}amino)phenyl]sulfonyl}-2-(1H-pyrrolo[2,3-b]pyridin-5-yloxy)benzamide] | < 0.01
15 | CC1(C)CCC(CN2CCN(c3ccc(C(=O)NS(=O)(=O)c4cnc(OCC5(F)CCOCC5)c(C(F)(F)F)c4)c(Oc4cnc5[nH]ccc5c4)c3)CC2)=C(c2ccc(Cl)cc2)C1 [Example 208, 4-(4-{[2-(4-chlorophenyl)-4,4-dimethylcyclohex-1-en-1-yl]methyl}piperazin-1-yl)-N-{[6-[(4-fluorotetrahydro-2H-pyran-4-yl)methoxy]-5-(trifluoromethyl)pyridin-3-yl]sulfonyl}-2-(1H-pyrrolo[2,3-b]pyridin-5-yloxy)benzamide] | 0.104
16 | CC1(C)CCC(CN2CCN(c3ccc(C(=O)NS(=O)(=O)c4ccc(NCC5CCC6(CC5)COC6)c([N+](=O)[O-])c4)c(Oc4cnc5[nH]ccc5c4)c3)CC2)=C(c2ccc(Cl)cc2)C1 [Example 365, 4-(4-{[2-(4-chlorophenyl)-4,4-dimethylcyclohex-1-en-1-yl]methyl}piperazin-1-yl)-N-({3-nitro-4-[(2-oxaspiro[3.5]non-7-ylmethyl)amino]phenyl}sulfonyl)-2-(1H-pyrrolo[2,3-b]pyridin-5-yloxy)benzamide] | < 0.01
17 | CC1(C)CCC(CN2CCN(c3ccc(C(=O)NS(=O)(=O)c4cnc(O[C@@H]5CCN(CC(F)F)C5)c(Cl)c4)c(Oc4cnc5[nH]ccc5c4)c3)CC2)=C(c2ccc(Cl)cc2)C1 [Example 261, N-[(5-chloro-6-{[(3R)-1-(2,2-difluoroethyl)pyrrolidin-3-yl]oxy}pyridin-3-yl)sulfonyl]-4-(4-{[2-(4-chlorophenyl)-4,4-dimethylcyclohex-1-en-1-yl]methyl}piperazin-1-yl)-2-(1H-pyrrolo[2,3-b]pyridin-5-yloxy)benzamide] | 0.134
18 | CC1(C)CCC(CN2CCN(c3ccc(C(=O)NS(=O)(=O)c4ccc(OCC5CN(C6CC6)CCO5)c([N+](=O)[O-])c4)c(Oc4cnc5[nH]ccc5c4)c3)CC2)=C(c2ccc(Cl)cc2)C1 (stereo not drawn) [Example 354, 4-(4-{[2-(4-chlorophenyl)-4,4-dimethylcyclohex-1-en-1-yl]methyl}piperazin-1-yl)-N-({4-[(4-cyclopropylmorpholin-2-yl)methoxy]-3-nitrophenyl}sulfonyl)-2-(1H-pyrrolo[2,3-b]pyridin-5-yloxy)benzamide] | 0.01
